Values quoted from earlier work as cited in patent publication US20020016334A1, “Pharmaceutical composition for the treatment of attention deficit hyperactivity disorder (ADHD)” (priority 2000, published 2002).

Legend:
working memory deficits = conditions: brain-lesioned rats (Levin et al. 1993)
clinical ADHD symptoms = conditions: humans (Levin et al. 1996)
[1] = test system: performance on serial choice tasks; conditions: animal studies (Muir et al. 1995)

Structure (SMILES): CN1CCCC1c1cccnc1 (stereo not drawn) [nicotine]
- Effect on deficits in working memory (working memory deficits): reverse deficits in working memory
- Effect on clinical ADHD symptoms by Clinical Global Impression scale (clinical ADHD symptoms): significantly improves
- Effect on performance on serial choice tasks [1]: improves performance
